Laboratory results from US9034891B2, “Bicyclic heterocyclic spiro compounds” (ISRAEL INSTITUTE FOR BIOLOGICAL RESEARCH, priority 2009, dated 2015).

How the values were obtained:
M1 mAChR [1] = target: T1, M1 mAChR (Homo sapiens, UniProt P11229); assay: Intracellular Ca2+ mobilization (Fluo-4 NW) in cells stably transfected with M1 mAChR; type: cell-based; design: expressed in transfected cells; conditions: for activity at 100 µM: remaining carbachol-induced effect, read-out: Antagonist at 100 μM on M1 mAChR inhibiting carbachol-induced effects from 100% to; for Kd: read-out: Effects on M1 mAChR: antagonist, Kd; for M1 agonist at 100 μM vs. carbachol (full muscarinic agonist, 100%): mobilization of intracellular Ca ions
T1 sequence (P11229 1-460): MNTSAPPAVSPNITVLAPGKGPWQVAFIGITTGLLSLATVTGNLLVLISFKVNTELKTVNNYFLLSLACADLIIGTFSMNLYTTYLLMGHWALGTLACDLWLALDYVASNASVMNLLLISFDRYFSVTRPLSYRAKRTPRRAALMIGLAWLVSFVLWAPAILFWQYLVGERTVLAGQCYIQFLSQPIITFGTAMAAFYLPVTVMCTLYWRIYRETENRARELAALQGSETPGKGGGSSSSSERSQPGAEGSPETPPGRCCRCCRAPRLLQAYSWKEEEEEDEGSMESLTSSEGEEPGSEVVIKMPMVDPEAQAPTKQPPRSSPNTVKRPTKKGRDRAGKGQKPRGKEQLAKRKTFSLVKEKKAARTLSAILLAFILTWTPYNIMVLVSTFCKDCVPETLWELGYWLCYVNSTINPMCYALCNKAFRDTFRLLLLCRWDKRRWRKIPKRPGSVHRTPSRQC
Description: On the day of experiment, cells were fully confluent.
To evaluate selectivity for a subtype of mAChR, in particular the M1 mAChR vs. M3 and MS mAChR, the assays were calibrated using ligands that have a combined activity, e.g. M1 agonistic and M3 antagonistic or M1 agonistic and MS antagonistic profiles, respectively. This can eliminate effects due to different receptor reserves in cell-based assays.

Wistar rats = assay: Passive avoidance, trihexyphenidyl-induced memory impairment in rats; type: in vivo, rat; conditions: NE-100 1 mg/kg alone
Description: (§1) Trihexyphenidyl is a selective M1 muscarinic antagonist that crosses the blood brain barrier and induces memory and learning impairments (Bymaster et al., J Pharmacol Exp. Ther. 267: 16-24, 1993; Roldan et al., Neurosci. Lett. 230: 93-96, 1997; Kimura et al., Brain Res. 834: 6-12, 1999). […] Naive Wistar rats were used in the experiments below. The passive avoidance (PA) task consists of a training (acquisition) phase and a retention phase. In the training procedure each rat was individually placed in the small illuminated compartment and after 60 s. of familiarization/adaptation, the door to the large compartment was opened and the latency to enter was measured (Initial Latency) Immediately following entry into the dark compartment, the door was closed and inescapable foot shock (0.6 mA for 3 s) was delivered through the grid floor. […] After the acquisition trial the rat was returned to its home cage. Retention of the passive avoidance task was measured 24 h later, by again placing the rat in the light compartment and after a 60 s adaptation interval, the door was opened and the latency to re-enter the dark compartment was measured. […] Two separate experiments were conducted. […] In both experiments the rats were divided into 2 groups. One main group was treated with trihexyphenidyl (5 mg/kg, s.c) and the second main group was treated with vehicle (DDW-1 ml/kg, s.c.), 30 min before the shock.
In a further extension of these studies, retention of the passive avoidance task was measured 72 h later, by again placing the rat in the light compartment and after a 60 s adaptation interval, the door was opened and the latency to re-enter the dark compartment was measured. A cutoff point of 600 s was used for retention latency. […] Rats were divided into 2 groups. One group (N=30) was treated with trihexyphenidyl (5 mg/kg, s.c) and the second group (N=29) was treated with vehicle (DDW-1 ml/kg, s.c.), 30 min before the shock.

PC12M1 cells = assay: Mitochondrial apoptosis pathway, Bax and Bcl-2 immunoreactivity in PC12M1 cells
Protocol: These cells were partially differentiated (2-3 days), as observed under microscope. […] The pellet (rich mitochondrial fraction) was re-suspended with 200 μl Ripa buffer and lysed by rapid passage through a syringe needle (23G) for five to six times. The lysate was then used for further evaluation.
Bands were probed using the Rabbit Bax antibody (1:1000, Cell signaling, Cat. No. 2772) and Rabbit Bcl-2 antibody (1:1000, Cell signaling, Cat. No. 2870) followed by anti rabbit IgG (H&L) HRP (1:5,000, Jackson Immuno Research, 111-035-144).

rats = assay: Passive avoidance, MK-801-induced impairment in rats; type: in vivo, rat; conditions: sc, retention 24 h later
Description: as §1
MK-801 is an NMDA antagonist that induces cognitive behavioral impairments in rodents. […] In the first experiment (dose-finding study of MK-801) rats were divided into 4 groups. Three groups (N=27) were treated with MK-801 (50, 80 or 100 μg/kg, s.c) and the fourth group (N=10) was treated with vehicle (saline-1 ml/kg, s.c.), 30 min before the shock. […] One group (N=80) was treated with MK-801 (80 μg/kg, s.c) and the second group (N=59) was treated with the vehicle (saline-1 ml/kg, s.c.).

M1 mAChR [2] = target: T1, M1 mAChR; assay: αAPPs secretion in CHO cells double transfected with human APP695 and human M1 mAChR; type: cell-based; conditions: doubly-transfected CHO cells; AF710B at 0.01 μM, AF710 at 0.1 μM, AF710A at 1 μM
Protocol: α-APPs Secretion studies following incubation with the tested compounds were performed as described in Haring, et al. J. Neurochem., 1998, 71:2094-103. […] A day later, cells were washed twice with serum free media, and treated with the test compound at various concentrations ranging from 0.1 nM to 100 μM. […] After 1 hour the conditioned medium was collected to cold Eppendorf tubes, which included a protease inhibitor cocktail (0.1 mM phenylmethylsulphonyl fluoride (PMSF); 5 μg/ml leupeptin; 5 μg/ml pepstatin and 5 units/ml aprotinin) for determining αAPPs release. The protein content of each sample was concentrated using Centricon tubes (Amicon, Beverly, Mass.). […] CHO cells double transfected with human APP695 and M1 mAChR APPs bands were probed using anti-amyloid beta protein (1:1000, monoclonal 6E10 antibody, MAB1560, Chemicon) and peroxidase-linked rabbit anti mouse IgG (1:5,000; Jackson Immuno Research, PA). PC12 cells stably transfected with M1 mAChR APPs bands were probed using the anti-Alzheimer precursor protein A4 (1:4,000; monoclonal 22C11 antibody, Boehringer Mannheim) and the peroxidase-linked rabbit anti mouse IgG (1:20,000; Jackson Immuno Research, PA). Following extensive washout, the membranes were treated with Western Lightning Chemiluminescence Reagent Plus (PerkinElmer Life Sciences, MA) followed by exposure to SuperRX film (Fuji Medical X-ray film, Tokyo, Japan). Quantitative determination of the total APPs bands was performed by Scion Image program (NIH, Bethesda, USA). Samples of control and CCh were assayed in parallel and thus enabled compilation of data from separate experiments.

CCCC(CCC)C(=O)N1CC2(CCN(C)CC2)SC1C (centres unmarked) [AF717, 1-(2,8-dimethyl-1-thia-3,8-diazaspiro[4.5]dec-3-yl)-2-propylpentan-1-one]
activity at 100 µM (M1 mAChR [1]): < 25%

CC1SC2(CCN(C)CC2)CN1S(=O)(=O)c1ccc(F)cc1 (centres unmarked) [AF716, 3-(4-fluorobenzenesulfonyl)-2,8-dimethyl-1-thia-3,8-diazaspiro[4.5]-decane]
Kd (M1 mAChR [1]): 7.7 µM

CC1OC2(CCN(C)CC2)C/C1=N\OC(=O)CCc1c[nH]c2ccccc12 (centres unmarked) [AF733, (3E)-2,8-dimethyl-1-oxa-8-azaspiro[4.5]decan-3-one-O—[3-(1H-indol-3-yl)propanoyl]oxime]
M1 agonist at 100 μM vs. carbachol (full muscarinic agonist, 100%) (M1 mAChR [1]): 90%

CCCN(CCC)CCc1ccc(OC)c(OCCc2ccccc2)c1 [NE-100, reference compound]
inducing deficits in the PA task, alone (Wistar rats): not significantly effective
effect of sigma-1 antagonist on AF710B-mediated decrease of Bax elevation (PC12M1 cells; NGF deprivation): blocked these AF710B-mediated effects

CC1OC2(CCN(C)CC2)CN1C(=O)CCc1c[nH]c2ccccc12 (single isomer, unassigned) [AF711A]
M1 agonist at 100 μM vs. carbachol (full muscarinic agonist, 100%) (M1 mAChR [1]): 45%

CC1OC2(CCN(C)CC2)C2C1N2S(=O)(=O)c1ccc(F)cc1 (centres unmarked) [AF721, 1′,4-dimethyl-6-[3-(4-fluorobenzenesulfonyl)]-spiro-(3-oxa-6-aza-bicyclo[3.1.0]hexane-2,4′-piperidine)]
M1 agonist at 100 μM vs. carbachol (full muscarinic agonist, 100%) (M1 mAChR [1]): 13%

C[N+](C)(C)CCOC(N)=O [carbachol, reference compound]
Aβ 25-35 induced neurotoxicity expressed as Bax/Bcl2 (PC12M1 cells; PC12M1 cells, 1 μM): 29%±11

CC1SC2(CCN(C)CC2)CN1C(=O)/C=C/c1c[nH]c2ccccc12 (centres unmarked) [AF727, (E)-1-(2,8-dimethyl-1-thia-3,8-diaza-spiro[4.5]dec-3-yl)-3-(1H-indol-3-yl)-propenone]
Kd (M1 mAChR [1]): 8.7 µM

CC1OC2(CCN(C)CC2)C2C1N2C(=O)CCc1c[nH]c2ccccc12 (centres unmarked) [AF718C, 1′,4-dimethyl-6-(3-indolpropionyl)-spiro-(3-oxa-6-aza-bicyclo[3.1.0]-hexane-2,4′-piperidine)]
M1 agonist at 100 μM vs. carbachol (full muscarinic agonist, 100%) (M1 mAChR [1]): 43%

CC1SC2(CCN(C)CC2)CN1C(=O)Cc1c[nH]c2ccccc12 (centres unmarked) [AF726]
Kd (M1 mAChR [1]): 84.7 µM

CC1CN(C(=O)CCc2c[nH]c3ccccc23)C2(CCN(C)CC2)O1 (centres unmarked) [AF706, 1-(2,8-dimethyl-1-oxa-4,8-diazaspiro[4.5]dec-4-yl)-3-(1H-indol-3-yl)-propan-1-one]
Kd (M1 mAChR [1]): 39.7 µM

CCCC(CCC)C(=O)N1CC2(CCN(C)CC2)OC1C (centres unmarked) [AF712, 1-(2,8-dimethyl-1-oxa-3,8-diaza-spiro[4.5]dec-3-yl)-2-propyl-pentan-1-one]
Kd (M1 mAChR [1]): 22.6 µM

C[C@]12N[C@H](Cc3ccccc31)c1ccccc12 [MK-801, reference compound]
retention performance, dose-finding (rats; 50 μg/kg): ineffective
retention performance, dose-finding (rats; 80 and 100 μg/kg): impaired retention performance

C[C@H]1SC2(CCN(C)CC2)CN1C(=O)CCc1c[nH]c2ccccc12 (single isomer, unassigned) [AF710A]
maximal αAPPs secretion in comparison to untreated control cells (M1 mAChR [2]): 125%
Kd (M1 mAChR [1]): 31 µM

CC1SC2(CCN(C)CC2)CN1C(=O)c1cc(C(C)(C)C)c(O)c(C(C)(C)C)c1 (centres unmarked) [AF723, (3,5-di-tert-butyl-4-hydroxy-phenyl)-(2,8-dimethyl-1-thia-3,8-diaza-spiro[4.5]dec-3-yl)-methanone]
activity at 100 µM (M1 mAChR [1]): < 50%

CCCC(CCC)C(=O)N1CC(C)OC12CCN(C)CC2 (centres unmarked) [AF713, 1-(2,8-dimethyl-1-oxa-4,8-diaza-spiro[4.5]dec-4-yl)-2-propyl-pentan-1-one]
Kd (M1 mAChR [1]): 113 µM

CC1OC2(CCN(C)CC2)CN1C(=O)CCc1c[nH]c2ccccc12 (single isomer, unassigned) [AF711B]
Kd (M1 mAChR [1]): 42 µM

CCC(=O)N1CC2(CCN(C)CC2)SC1C (centres unmarked) [AF724, 1-(2,8-dimethyl-1-thia-3,8-diaza-spiro[4.5]dec-3-yl)-propan-1-one]
activity at 100 µM (M1 mAChR [1]): < 50%

CC1OC2(CCN(C)CC2)CC1NC(=O)CCc1c[nH]c2ccccc12 (single isomer, unassigned) [AF730, N-(2,8-dimethyl-1-oxa-8-aza-spiro[4.5]dec-3-yl)-3-(1H-indol-3-yl)-propionamide]
M1 agonist at 100 μM vs. carbachol (full muscarinic agonist, 100%) (M1 mAChR [1]): 40%

CC1CN(S(=O)(=O)c2ccc(F)cc2)C2(CCN(C)CC2)O1 (centres unmarked) [AF714, 4-(4-fluoro-benzenesulfonyl)-2,8-dimethyl-1-oxa-4,8-diaza-spiro[4.5]-decane]
Kd (M1 mAChR [1]): 9.7 µM

CC1OC2(CCN(C)CC2)CC1NC(=O)CCc1c[nH]c2ccccc12 (single isomer, unassigned) [AF730 II]
M1 agonist at 100 μM vs. carbachol (full muscarinic agonist, 100%) (M1 mAChR [1]): 36%

CC1SC2(CCN(C)CC2)CN1C(=O)CCCc1c[nH]c2ccccc12 (centres unmarked) [AF725]
activity at 100 µM (M1 mAChR [1]): < 50%

CC1OC2(CCN(C)CC2)CN1S(=O)(=O)c1ccc(F)cc1 (centres unmarked) [AF715, 3-(4-fluorobenzenesulfonyl)-2,8-dimethyl-1-oxa-3,8-diazaspiro[4.5]-decane]
Kd (M1 mAChR [1]): 2.5 µM
